Experimental data as given in patent US20240335431A1, “1-H-PYRROLO[2,3-c]PYRIDINE COMPOUNDS” (Acerta Pharma B.V., priority 2023, published 2024).
Where two headings read alike, the source gives them in different places.

Assays:
hERG = hERG (Homo sapiens (Human), UniProt Q12809); assay: hERG assay 1 (standard), SyncroPatch 384PE; assay type: cell-based; settings: CHO cells, room temperature, up to 40 uM
In short: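 Automated patch clamp on hERG-expressing CHO-K1 cells at room temperature, +60/−40 mV protocol every 15 s. Six-point cumulative concentrations 139 nM to 40 uM (0.33% DMSO final); IC50 from one-site fit of % inhibition. Wells required ≥30 MegaOhm seal, current >0.2 nA, Z prime >0.4.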

MV4;11 cells = assay: Proliferation assay, MV4;11 (CellTiter-Glo, 7 days); assay type: cell-based, human; settings: read-out: MV-4-11 IC50
In short: (§1)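 Cells were seeded at line-specific low densities for linear growth, exposed to 3.16-fold serial compound dilutions at 0.1% DMSO, and incubated 7 days at 37 °C, 5% CO2. Viability was read by CellTiter-Glo 2.0 luminescence; IC50 came from one-site fits of % inhibition, normalized between DMSO-treated cells (100%) and a day-0 plate (0%).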

[1] = Human liver microsomes (HLMs) intrinsic clearance assay; assay type: in vitro ADME; settings: human, microsomes; for HLM CLint: 1 µM, pH 7.4
MOLM-13 cells = assay: Proliferation assay, MOLM-13 (CellTiter-Glo, 7 days); assay type: cell-based, human
In short: as §1

Sequence of hERG (Q12809 whole entry): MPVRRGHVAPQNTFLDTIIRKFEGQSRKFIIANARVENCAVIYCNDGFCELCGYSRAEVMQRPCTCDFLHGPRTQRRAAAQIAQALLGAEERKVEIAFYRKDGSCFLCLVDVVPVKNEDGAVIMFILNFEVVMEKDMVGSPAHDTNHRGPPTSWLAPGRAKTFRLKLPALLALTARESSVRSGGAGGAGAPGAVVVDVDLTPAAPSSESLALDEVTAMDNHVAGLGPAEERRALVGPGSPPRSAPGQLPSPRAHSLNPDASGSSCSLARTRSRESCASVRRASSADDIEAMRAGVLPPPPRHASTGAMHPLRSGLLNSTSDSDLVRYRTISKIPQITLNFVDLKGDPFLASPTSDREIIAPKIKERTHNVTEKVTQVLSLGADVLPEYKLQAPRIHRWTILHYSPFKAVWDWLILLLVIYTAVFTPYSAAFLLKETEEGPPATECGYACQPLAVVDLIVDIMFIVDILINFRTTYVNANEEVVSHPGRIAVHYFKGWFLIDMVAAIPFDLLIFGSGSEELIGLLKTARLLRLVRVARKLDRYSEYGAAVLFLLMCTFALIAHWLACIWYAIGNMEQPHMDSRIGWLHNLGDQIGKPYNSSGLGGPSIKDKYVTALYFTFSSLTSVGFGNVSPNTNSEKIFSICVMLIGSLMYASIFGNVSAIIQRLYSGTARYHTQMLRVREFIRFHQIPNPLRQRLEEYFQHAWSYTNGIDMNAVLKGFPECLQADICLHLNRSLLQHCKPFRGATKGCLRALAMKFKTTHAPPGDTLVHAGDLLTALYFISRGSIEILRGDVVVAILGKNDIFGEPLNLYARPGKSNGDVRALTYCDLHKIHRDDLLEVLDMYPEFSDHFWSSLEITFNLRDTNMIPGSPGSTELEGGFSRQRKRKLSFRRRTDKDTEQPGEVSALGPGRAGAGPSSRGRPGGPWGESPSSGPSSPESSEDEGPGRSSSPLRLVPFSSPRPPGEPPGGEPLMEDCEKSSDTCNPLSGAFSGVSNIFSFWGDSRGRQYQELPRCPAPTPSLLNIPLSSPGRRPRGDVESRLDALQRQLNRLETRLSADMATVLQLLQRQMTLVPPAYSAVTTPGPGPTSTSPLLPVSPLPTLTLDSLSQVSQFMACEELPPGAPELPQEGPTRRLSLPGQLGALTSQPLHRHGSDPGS

Structure (SMILES) | IC50 (hERG) | IC50 (MV4;11 cells; Homo sapiens, MV4-11, 168 h) | microsomal CLint at 1 µM ([1]; pH 7.4, HLM CLint) | IC50 (MOLM-13 cells; Homo sapiens, MOLM-13, 168 h) | IC50 (MOLM-13 cells) | IC50 (MV4;11 cells) | HLM CLint [1] | microsomal CLint at 1 µM ([1]; pH 7.4, 1 mg/mL HLM, NADPH, read-out: HLM CLint)
CCN(C(=O)c1cc(F)ccc1-n1cc(C(=O)C2CCN(C(=O)[C@H]3N[C@H]4C[C@@H]3[C@@H](F)C4)CC2)c2ccncc21)C(C)C [Example 30, N-Ethyl-5-fluoro-2-(3-(1-((1S,3S,4S,5S)-5-fluoro-2-azabicyclo[2.2.1]heptane-3-carbonyl)piperidine-4-carbonyl)-1H-pyrrolo[2,3-c]pyridin-1-yl)-N-isopropylbenzamide] | > 40000 nM | 33 nM | 54 µL/min/mg | 44 nM |  |  |  | 
CCN(C(=O)c1cc(F)ccc1-n1c(C)c(C(=O)C2CCN(C(=O)[C@H]3NC[C@@H]4C[C@@H]43)CC2)c2ccncc21)C(C)C [Example 47, 2-(3-(1-((1S,2S,5R)-3-Azabicyclo[3.1.0]hexane-2-carbonyl)piperidine-4-carbonyl)-2-methyl-1H-pyrrolo[2,3-c]pyridin-1-yl)-N-ethyl-5-fluoro-N-isopropylbenzamide] | > 40000 nM | 33 nM | 54 µL/min/mg |  | 42 nM |  |  | 
CCN(C(=O)c1cc(F)ccc1-n1c(C)c(C(=O)C2CCN(C(=O)[C@H]3NC[C@@H]4C[C@@H]43)CC2)c2ccncc21)C(C)C (single isomer, unassigned) [Example 48-2] | > 40000 nM |  |  |  | 27 nM | 29 nM | 55 µL/min/mg | 
CC(C)N(C(=O)c1cc(F)ccc1-n1cc(C(=O)C2CCN(C[C@H]3CC[C@H](NS(C)(=O)=O)CC3)CC2)c2ccncc21)C(C)C [Example 17, 5-Fluoro-N,N-diisopropyl-2-(3-(1-(((1r,4r)-4-(methylsulfonamido)cyclohexyl)-methyl)piperidine-4-carbonyl)-1H-pyrrolo[2,3-c]pyridin-1-yl)benzamide] | 9100 nM | 320 nM | 52 µL/min/mg | 107 nM |  |  |  | 
CCN(C(=O)c1cc(F)ccc1-n1cc(C(=O)C2CCN(C(=O)[C@H]3NC[C@@H]4C[C@@H]43)CC2)c2ccncc21)C(C)C [Example 28, 2-(3-(1-((1S,2S,5R)-3-Azabicyclo[3.1.0]hexane-2-carbonyl)piperidine-4-carbonyl)-1H-pyrrolo[2,3-c]pyridin-1-yl)-N-ethyl-5-fluoro-N-isopropylbenzamide] | > 40000 nM | 34 nM | 41 µL/min/mg | 39 nM |  |  |  | 
CCN(C(=O)c1cc(F)ccc1-n1cc(C(=O)C2CN(C(=O)[C@H]3N[C@@H]4CC[C@H]3C4)C2)c2ccncc21)C(C)C [Example 8, 2-(3-(1-((1R,3S,4S)-2-Azabicyclo[2.2.1]heptane-3-carbonyl)azetidine-3-carbonyl)-1H-pyrrolo[2,3-c]pyridin-1-yl)-N-ethyl-5-fluoro-N-isopropylbenzamide] | > 40000 nM | 100 nM | 21 µL/min/mg | 142 nM |  |  |  | 
CC(C)N(C(=O)c1cc(F)ccc1-n1cc(C(=O)C2CCN(C(=O)[C@H]3NC[C@@H]4CC[C@@H]43)CC2)c2ccncc21)C(C)C (relative stereo) [Example 25, rel-2-(3-(1-((1R,2R,5S)-3-Azabicyclo[3.2.0]heptane-2-carbonyl)piperidine-4-carbonyl)-1H-pyrrolo[2,3-c]pyridin-1-yl)-5-fluoro-N,N-diisopropylbenzamide] | > 40000 nM | 24 nM | 94 µL/min/mg | 50 nM |  |  |  | 
C=C1C[C@@H]2CC[C@H]1[C@@H](C(=O)N1CCC(C(=O)c3cn(-c4ccc(F)cc4C(=O)N(C(C)C)C(C)C)c4cnccc34)CC1)N2 [Example 18, 5-Fluoro-N,N-diisopropyl-2-(3-(1-((1S,3S,4R)-5-methylene-2-azabicyclo[2.2.2]-octane-3-carbonyl)piperidine-4-carbonyl)-1H-pyrrolo[2,3-c]pyridin-1-yl)benzamide] | > 40000 nM | 44 nM | 172 µL/min/mg | 57 nM |  |  |  | 
Cc1c(C(=O)C2CCN(C(=O)[C@@H]3CCC(C)(C)N3)CC2)c2ccncc2n1-c1ccc(F)cc1C(=O)N(C(C)C)C(C)C (single isomer, unassigned) [Compound 56-2] | > 40000 nM | 35 nM |  |  | 40 nM |  | 91 µL/min/mg | 
CCN(C(=O)c1cc(F)ccc1-n1c(C)c(C(=O)C2CCN(C(=O)[C@H]3N[C@@H]4CC[C@H]3C4)CC2)c2ccncc21)C(C)C [Example 46, 2-(3-(1-((1R,3S,4S)-2-Azabicyclo[2.2.1]heptane-3-carbonyl)piperidine-4-carbonyl)-2-methyl-1H-pyrrolo[2,3-c]pyridin-1-yl)-N-ethyl-5-fluoro-N-isopropylbenzamide] | > 40000 nM | 37 nM | 50 µL/min/mg | 52 nM |  |  |  | 
CCN(C(=O)c1cc(F)ccc1-n1c(C)c(C(=O)C2CCN(C(=O)[C@@H]3CCC(C)(C)N3)CC2)c2ccncc21)C(C)C (single isomer, unassigned) [Example 50-2] | > 40000 nM | 39 nM |  |  | 44 nM |  | 48 µL/min/mg | 
CC(C)N(C(=O)c1cc(F)ccc1-n1cc(C(=O)[C@@H]2CCN(C(=O)[C@H]3N[C@@H]4CC[C@H]3C4)C2)c2ccncc21)C(C)C [Example 3, 2-(3-((R)-1-((1R,3S,4S)-2-Azabicyclo[2.2.1]heptane-3-carbonyl)pyrrolidine-3-carbonyl)-1H-pyrrolo[2,3-c]pyridin-1-yl)-5-fluoro-N,N-diisopropylbenzamide] | 38800 nM | 99 nM | 41 µL/min/mg | 98 nM |  |  |  | 
CC(C)N(C(=O)c1cc(F)ccc1-n1cc(C(=O)C2CCN(C(=O)[C@H]3N[C@H]4C[C@@H]3[C@@H](F)C4)CC2)c2ccncc21)C(C)C [Example 22, 5-Fluoro-2-(3-(1-((1S,3S,4S,5S)-5-fluoro-2-azabicyclo[2.2.1]heptane-3-carbonyl)piperidine-4-carbonyl)-1H-pyrrolo[2,3-c]pyridin-1-yl)-N,N-diisopropylbenzamide] | > 40000 nM | 17 nM | 91 µL/min/mg | 30 nM |  |  |  | 
CC(C)N(C(=O)c1cc(F)ccc1-n1cc(C(=O)C2CCN(C(=O)[C@@H]3CC4(CC4)CN3)CC2)c2ccncc21)C(C)C [Example 26, (S)-2-(3-(1-(5-Azaspiro[2.4]heptane-6-carbonyl)piperidine-4-carbonyl)-1H-pyrrolo[2,3-c]pyridin-1-yl)-5-fluoro-N,N-diisopropylbenzamide] | > 40000 nM | 50 nM |  | 103 nM |  |  |  | 51 µL/min/mg
Cc1c(C(=O)C2CCN(C(=O)[C@H]3NC[C@@H]4C[C@@H]43)CC2)c2ccncc2n1-c1ccc(F)cc1C(=O)N(C(C)C)C(C)C (single isomer, unassigned) [Example 55-2] | > 40000 nM |  |  |  | 25 nM | 31 nM | 194 µL/min/mg | 
CC(C)c1ncsc1-c1cc(F)ccc1-n1cc(C(=O)C2CCN(C(=O)[C@H]3N[C@@H]4CC[C@H]3C4)CC2)c2ccncc21.O=CO [Example 42, (1-((1R,3S,4S)-2-Azabicyclo[2.2.1]heptane-3-carbonyl)piperidin-4-yl)(1-(4-fluoro-2-(4-isopropylthiazol-5-yl)phenyl)-1H-pyrrolo[2,3-c]pyridin-3-yl)methanone 1·formic acid] | > 40000 nM | 43 nM | 219 µL/min/mg | 40 nM |  |  |  | 
